Reference: patent US20240168041A1, “SYSTEMS AND METHODS ENABLING PH[…] TESTING OF PATCH-CLAMP SAMPLES” (priority 2021, published 2024)
Values joined by “and” are separate entries in the source; they are usually repeats but may differ in a detail not shown here. Equal values may be shown once. Read-outs that look alike come from different tables or passages of the source.

How the values were obtained:
[1] = molecular target: T1, GABAAR in stably expressing HEK cells (Mus musculus, UniProt P22723+P62812+P63137); assay: cell-based
T1 construct: expressed in transfected cells; host or cells: HEK 293 cells
T1 sequence (P62812 28-455): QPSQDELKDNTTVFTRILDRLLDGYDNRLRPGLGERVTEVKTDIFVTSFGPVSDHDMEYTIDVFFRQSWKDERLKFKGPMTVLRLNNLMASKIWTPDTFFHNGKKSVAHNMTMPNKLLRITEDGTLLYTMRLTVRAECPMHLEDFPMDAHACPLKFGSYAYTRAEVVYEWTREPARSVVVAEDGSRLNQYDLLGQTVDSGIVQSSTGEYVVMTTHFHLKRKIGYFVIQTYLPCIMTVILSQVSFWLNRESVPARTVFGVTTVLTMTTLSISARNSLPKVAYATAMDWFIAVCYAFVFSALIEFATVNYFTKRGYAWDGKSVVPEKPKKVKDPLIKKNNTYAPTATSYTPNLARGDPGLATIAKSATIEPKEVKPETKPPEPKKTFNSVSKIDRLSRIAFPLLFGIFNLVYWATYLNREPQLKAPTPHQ
T1 sequence (P63137 25-512 limits assumed): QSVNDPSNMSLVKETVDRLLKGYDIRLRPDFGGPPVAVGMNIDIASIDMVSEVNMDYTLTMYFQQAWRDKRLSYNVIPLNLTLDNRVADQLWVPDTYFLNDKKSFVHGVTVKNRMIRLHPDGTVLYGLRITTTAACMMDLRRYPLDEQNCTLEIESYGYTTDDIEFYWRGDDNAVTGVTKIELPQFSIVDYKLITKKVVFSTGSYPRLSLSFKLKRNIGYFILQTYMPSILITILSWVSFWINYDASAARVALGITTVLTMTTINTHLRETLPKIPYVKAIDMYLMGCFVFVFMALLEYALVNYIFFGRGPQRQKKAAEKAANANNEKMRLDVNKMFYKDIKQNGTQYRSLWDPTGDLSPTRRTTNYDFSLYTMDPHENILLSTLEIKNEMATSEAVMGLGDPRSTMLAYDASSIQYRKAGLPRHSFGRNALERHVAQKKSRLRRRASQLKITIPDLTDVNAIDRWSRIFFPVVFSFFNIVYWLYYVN
T1 sequence (P22723 39-474): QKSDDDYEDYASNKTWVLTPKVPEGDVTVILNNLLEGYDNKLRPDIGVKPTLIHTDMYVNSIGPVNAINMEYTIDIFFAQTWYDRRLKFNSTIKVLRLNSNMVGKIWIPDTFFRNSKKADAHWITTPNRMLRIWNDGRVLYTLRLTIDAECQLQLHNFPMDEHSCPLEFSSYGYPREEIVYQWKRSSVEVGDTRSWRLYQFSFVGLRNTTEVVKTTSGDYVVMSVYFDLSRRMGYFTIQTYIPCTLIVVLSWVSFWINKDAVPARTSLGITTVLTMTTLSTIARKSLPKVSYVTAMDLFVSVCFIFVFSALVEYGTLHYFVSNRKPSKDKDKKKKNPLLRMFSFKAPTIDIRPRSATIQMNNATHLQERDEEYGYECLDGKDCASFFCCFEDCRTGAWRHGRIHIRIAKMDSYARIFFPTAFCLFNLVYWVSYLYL
Excerpt: FIGS. 5A through 5D provides various steps system 500 can perform to achieve a time-constant concentration response of deactivation of a cell receptor exposed to a drug. […] FIGS. 5A through 5D the individual steps in a flowchart illustrating the patcherBotPharma operation, timing, and success rate. After the one-time calibration and cell selection step 502, system 500 loops through and serially records from the selected cells in steps 504 through 514. Quality control measures are in place at steps 506, 508a, 508b, and 510 to terminate the current experiment and continue to the next iteration, as shown in FIG. 5A. System 500 can perform calibration and cell selection 502 manually such that the user selects one or more cells within a biological sample. In some instances, calibration and cell selection 502 can be performed automatically. For instance, calibration can be pre-programed and stored in memory 66 of controller 200. Alternatively, or in addition thereto, calibration can be automatically sensed by a combination of the manipulator assembly 120 and automated control of a microscope.
After quality control measures verify an appropriate seal between the pipette tip 110 and the cell target, system 500 can initiate the experimental protocol at step 512. […] Each phase of each experiment would start with the valves changing to the next set to be tested, with a wait step to allow for the solutions to be primed, followed by the collection of 10 replicates of the intended jump protocol.
(§1) cDNAs for mouse Gabra1, Gabrb2, and the long form of Gabrg2 were subcloned into the pAC156 plasmid, a generous gift from Albert Cheng. The cDNAs were driven by an EF1alpha promoter. A PGK promoter-driven puromycin resistance cassette was also present in pAC156; both cassettes were flanked by piggybac transposon arms. All three plasmids were co-transfected with the mPB piggybac transposase into HEK 293 cells, selected by puromycin, and sorted into single cells. Clones were assayed for Gabra1, Gabrb2, and Gabrg2 expression by immunofluorescence, and one clone was expanded for further study and use in this description herein. Trypsin was used to dissociate the cells and plated on the same coverslips, as mentioned above, 24-72 hours before experimentation (shorter time and less PDL for lifted cell, and the inverse for excised patches).
(§2) Whole-cell voltage-clamp recordings were performed with thin-walled borosilicate glass electrodes (3-6 MΩ, TW150E-4, World Precision Instruments) filled with solution containing (in mM) 110 Cs-gluconate, 30 CsCl, 5 HEPES, 4 NaCl, 0.5 CaCl2, 2 MgCl2, 5 BAPTA, 2 NaATP, 0.3 NaGTP (pH 7.35). The extracellular recording solution contained (in mM) 150 NaCl, 10 HEPES, 3 KCl, 0.5 CaCl2, 1 MgCl2, and 0.01 EDTA (pH 7.4). Whole cell recording from primary cortical neurons (examples showing alternative experiment paradigm in the supplemental) were obtained utilizing an internal solution, containing (in mM) 115 K-gluconate, 20 KCl, 10 HEPES, 2 Mg2ATP, 0.3 NaGTP, and 10 Na2Phosphocreatine (pH 7.35), and external solution stated above but with 1 mM CaCl2. The electrode cleaning solution (2% Tergazyme in water) was made fresh daily. Cleaned electrodes were washed in appropriate internal solution. All solutions were filtered (0.45 μm or 0.22 μm). Responses were recorded using a Multiclamp 700B (Molecular Devices), filtered at 10 kHz (−3 dB), and digitized at 20 kHz.
(§3) Whole-cell rapid solution exchange experiments were analyzed using custom algorithms (Matlab, Mathworks). The desensitization and deactivation time courses were fitted by exponential functions based on receptor type.

[2] = molecular target: T2, GABAAR (α1β2γ2 L) in stably transfected HEK cells (Mus musculus, UniProt P22723+P62812+P63137); assay: Rapid agonist application patch-clamp recording of GABAAR responses (patcherBotPharma); type: cell-based; details: rapid application of 1 mM GABA for 1 sec
T2 construct: expressed in transfected cells; host or cells: HEK 293 cells
T2 sequence (P62812 28-455): as the sequence (P62812 28-455) above
T2 sequence (P63137 25-512 limits assumed): as the sequence (P63137 25-512 limits assumed) above
T2 sequence (P22723 39-474): as the sequence (P22723 39-474) above
Experimental: (§4) Recordings are from a lifted whole cell (left) and an outside-out patch using a 4 MΩ electrode (right), at −60 mV in 0 mM Mg^2+. […] Recordings are from a lifted whole cell (left, 1 s application) and an outside-out patch (right, 5 ms application).
as §1, §2
as §3, with “type. For NMDAR desensitization and GABAAR deactivation, they were fit by one exponential function,” for “type.”
In this experimental run, the patcherBotPharma was programmed to collect four-phase recordings. During each phase, five technical replicate sweeps were collected, a 10 sec sweep with agonist applied for 0.5 sec. Following each set of recordings, the patch was blown off with high pressure and the open-tip exchange time was determined to validate the electrode positioning.

[3] = molecular target: T3, NMDAR (GluN1/GluN2A) in transiently transfected HEK cells (Rattus norvegicus, UniProt P35439+Q00959); assay: Rapid agonist application patch-clamp recording of NMDAR responses (patcherBotPharma); type: cell-based; details: rapid application of 1 mM Glutamate for 1 sec; −60 mV
T3 construct: expressed in transfected cells; host or cells: HEK-293 cells (CRL 1573, ATCC); calcium phosphate transient transfection with GFP co-transfected
T3 sequence (Q00959 23-1464, other chains not shown): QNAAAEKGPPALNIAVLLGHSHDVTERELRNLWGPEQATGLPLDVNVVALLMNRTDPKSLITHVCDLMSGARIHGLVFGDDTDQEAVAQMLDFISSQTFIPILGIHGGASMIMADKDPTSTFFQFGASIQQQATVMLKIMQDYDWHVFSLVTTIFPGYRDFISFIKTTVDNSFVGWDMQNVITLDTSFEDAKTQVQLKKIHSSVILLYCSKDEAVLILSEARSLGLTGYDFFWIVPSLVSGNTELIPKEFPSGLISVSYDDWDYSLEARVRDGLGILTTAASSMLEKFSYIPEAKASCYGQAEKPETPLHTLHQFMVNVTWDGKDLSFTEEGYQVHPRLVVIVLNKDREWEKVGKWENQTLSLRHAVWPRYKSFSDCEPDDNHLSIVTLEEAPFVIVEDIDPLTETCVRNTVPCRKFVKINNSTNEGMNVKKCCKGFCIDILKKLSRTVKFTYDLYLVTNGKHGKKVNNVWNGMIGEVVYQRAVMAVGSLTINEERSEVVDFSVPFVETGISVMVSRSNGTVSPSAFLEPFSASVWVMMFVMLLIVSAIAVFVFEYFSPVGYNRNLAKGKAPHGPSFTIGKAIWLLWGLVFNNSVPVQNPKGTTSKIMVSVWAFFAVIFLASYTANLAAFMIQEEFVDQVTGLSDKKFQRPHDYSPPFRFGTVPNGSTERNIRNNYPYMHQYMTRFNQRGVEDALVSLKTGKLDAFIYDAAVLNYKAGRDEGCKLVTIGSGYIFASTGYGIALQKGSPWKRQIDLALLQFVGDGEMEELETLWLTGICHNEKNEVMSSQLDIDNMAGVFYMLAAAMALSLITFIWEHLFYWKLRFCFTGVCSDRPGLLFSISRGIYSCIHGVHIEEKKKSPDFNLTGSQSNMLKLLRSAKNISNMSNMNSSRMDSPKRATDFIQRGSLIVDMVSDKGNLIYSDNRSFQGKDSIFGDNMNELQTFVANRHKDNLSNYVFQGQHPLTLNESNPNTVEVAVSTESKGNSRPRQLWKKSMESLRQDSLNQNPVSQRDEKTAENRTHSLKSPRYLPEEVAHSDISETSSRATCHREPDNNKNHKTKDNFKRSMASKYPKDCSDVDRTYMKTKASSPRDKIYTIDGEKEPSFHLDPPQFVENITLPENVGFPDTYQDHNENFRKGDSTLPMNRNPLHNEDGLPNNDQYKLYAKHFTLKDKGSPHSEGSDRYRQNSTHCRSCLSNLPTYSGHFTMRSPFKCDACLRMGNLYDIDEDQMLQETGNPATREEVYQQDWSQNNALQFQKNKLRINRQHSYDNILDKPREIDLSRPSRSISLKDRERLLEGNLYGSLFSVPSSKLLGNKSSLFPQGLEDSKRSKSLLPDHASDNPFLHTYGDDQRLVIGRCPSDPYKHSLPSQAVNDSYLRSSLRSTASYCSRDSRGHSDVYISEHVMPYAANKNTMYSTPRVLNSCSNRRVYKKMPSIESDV
Experimental: as §4
HEK-293 cells (CRL 1573, ATCC; hereafter HEK cells) and a stable GABAAR-expressing cell line were cultured in DMEM (Cat #10566016, ThermoFisher Scientific) supplemented with 10% fetal bovine serum (FBS), 10 U/ml penicillin, and 10 lag/ml streptomycin and maintained at 5% CO2 in a 37° C. incubator. For use on the electrophysiology rig, heterologous cells were plated on poly-D-Lysine (PDL) coated glass coverslips (0.1-0.5 mg/mL, Warner Instruments). Transiently transfected recombinant receptors were expressed from complementary DNA (cDNA) encoding rat GluN1-1a (hereafter GluN1, U08261) and GluN2A (D13211). Calcium phosphate was used to transiently transfect HEK cells in a 24-well plate with 500 ng of cDNA at a ratio of 1:1:5 (GluN1:GluN2A:GFP). Four hours after transfection, NMDAR antagonists D,L-2amino-5-phosphonovalerate (200 μM, DL-APV) and 7-chlorokynurenic acid (200 μM) were added to the culture medium to decrease the cytotoxic effect of NMDAR expression.
as §2
as §3, with “type. For NMDAR desensitization and GABAAR deactivation, they were fit by one exponential function,” for “type.”
A series of pharmacology experiments were performed on GABAAR and NMDARs where rapid agonist application was applied to excised outside-out patches to assess patcherBotPharma performance on the minimum processes required in an experiment, described in more detail in Table 1).

[4] = molecular target: T3, NMDAR (GluN1/GluN2A) in transiently transfected HEK cells; assay: as above; type: cell-based; details: rapid application of 1 mM Glutamate for 1 sec; −40 mV
[5] = 1 mM GABA for 0.5 sec, propofol-free GABA Control, concentration set 1
[6] = 1 mM GABA for 0.5 sec, propofol-free GABA Control, concentration set 2
[7] = 0.5 μM PRO, 1 mM GABA for 0.5 sec, set 1
[8] = 1 μM PRO, 1 mM GABA for 0.5 sec, set 2
[9] = 2 μM PRO, 1 mM GABA for 0.5 sec, set 1
[10] = 5 μM PRO, 1 mM GABA for 0.5 sec, set 2
[11] = 10 μM PRO, 1 mM GABA for 0.5 sec, set 1
[12] = 20 μM PRO, 1 mM GABA for 0.5 sec, set 2
[13] = 50 μM PRO, 1 mM GABA for 0.5 sec, set 1
[14] = 100 μM PRO, 1 mM GABA for 0.5 sec, set 2

With `NCCCC(=O)O` [GABA] the “Deactivation Tau” value [1, 5] was 129 ± 11 ms, the “Desensitization Extent (SS/Peak %)” value [1, 5] was 39.3 ± 2.0% and the “Response Peak Amplitude” value [1, 5] was 133 ± 36 pA. For the same compound, the “Response Steady State Amplitude” value [1, 5] was 51.1 ± 12.3 pA, the “Deactivation Tau” value [1, 6] was 130 ± 27 ms and the “Desensitization Extent (SS/Peak %)” value [1, 6] was 31.8 ± 7.7%. For the same compound, the “Response Peak Amplitude” value [1, 6] was 93.6 ± 6.8 pA, the “Response Steady State Amplitude” value [1, 6] was 30.5 ± 8.1 pA and the “Deactivation Tau” value ([2]; −40 mV) was 216 ± 29 ms. For the same compound, the “Desensitization Extent (SS/Peak %)” value ([2]; −40 mV) was 26.4 ± 1.8%, the “Desensitization Tau” value ([2]; −40 mV) was 681 ± 130 ms and the “Response Peak Amplitude” value ([2]; −40 mV) was 586 ± 150 pA. For the same compound, the “Response Steady State Amplitude” value ([2]; −40 mV) was 170 ± 54 pA, the “Deactivation Tau” value ([2]; −60 mV) was 133 ± 6 ms and the “Desensitization Extent (SS/Peak %)” value ([2]; −60 mV) was 24.8 ± 1.1%. For the same compound, the “Desensitization Tau” value ([2]; −60 mV) was 965 ± 298 ms and the “Response Peak Amplitude” value ([2]; −60 mV) was 173 ± 48 pA.

For `N[C@@H](CCC(=O)O)C(=O)O` [Glutamate, glutamate], the “Deactivation Tau” value [3] was 81.3 ± 18.4 ms, the “Desensitization Extent (SS/Peak %)” value [3] was 54.8 ± 6.9% and the “Desensitization Tau” value [3] was 984 ± 192 ms. For the same compound, the “Response Peak Amplitude” value [3] was 326 ± 180 pA, the “Response Steady State Amplitude” value [3] was 215 ± 139 pA and the “Deactivation Tau” value [4] was 71.9 ± 11.0 ms. For the same compound, the “Desensitization Extent (SS/Peak %)” value [4] was 34.2 ± 6.4%, the “Desensitization Tau” value [4] was 388 ± 75 ms and the “Response Peak Amplitude” value [4] was 271 ± 104 pA. The “Response Steady State Amplitude” value [4] was 130 ± 68 pA.

In the case of `CC(C)c1cccc(C(C)C)c1O` [propofol], the “Deactivation Tau” value [1] is reported as 143 ± 25 ms and 129 ± 12 ms, the “Desensitization Extent (SS/Peak %)” value [1] is reported as 41.8 ± 1.7% and 25.2 ± 13.5% and the EC50 [1] is reported as 11.8 ± 4.6 µM. For the same compound, the “Deactivation Tau” value [1, 7] was 116 ± 13 ms, the “Desensitization Extent (SS/Peak %)” value [1, 7] was 39.6 ± 1.3% and the “Response Peak Amplitude” value [1, 7] was 100 ± 20 pA. The “Response Steady State Amplitude” value [1, 7] was 40.4 ± 8.9 pA, the “Deactivation Tau” value [1, 8] was 110 ± 15 ms and the “Desensitization Extent (SS/Peak %)” value [1, 8] was 34.9 ± 6.7%. For the same compound, the “Response Peak Amplitude” value [1, 8] was 72.2 ± 18.0 pA, the “Response Steady State Amplitude” value [1, 8] was 24.2 ± 6.6 pA and the “Deactivation Tau” value [1, 9] was 128 ± 13 ms. For the same compound, the “Desensitization Extent (SS/Peak %)” value [1, 9] was 40.0 ± 1.7%, the “Response Peak Amplitude” value [1, 9] was 109 ± 32 pA and the “Response Steady State Amplitude” value [1, 9] was 45.6 ± 14.9 pA. The “Deactivation Tau” value [1, 10] was 198 ± 29 ms, the “Desensitization Extent (SS/Peak %)” value [1, 10] was 30.0 ± 5.1% and the “Response Peak Amplitude” value [1, 10] was 37.8 ± 9.1 pA. For the same compound, the “Response Steady State Amplitude” value [1, 10] was 11.1 ± 2.4 pA, the “Deactivation Tau” value [1, 11] was 208 ± 20 ms and the “Desensitization Extent (SS/Peak %)” value [1, 11] was 43.1 ± 2.2%. The “Response Peak Amplitude” value [1, 11] was 96.0 ± 25.2 pA, the “Response Steady State Amplitude” value [1, 11] was 42.1 ± 11.6 pA and the “Deactivation Tau” value [1, 12] was 328 ± 53 ms. The “Desensitization Extent (SS/Peak %)” value [1, 12] was 25.2 ± 6.6%, the “Response Peak Amplitude” value [1, 12] was 21.5 ± 4.6 pA and the “Response Steady State Amplitude” value [1, 12] was 6.1 ± 2.2 pA. The “Deactivation Tau” value [1, 13] was 331 ± 21 ms, the “Desensitization Extent (SS/Peak %)” value [1, 13] was 33.8 ± 2.7% and the “Response Peak Amplitude” value [1, 13] was 63.9 ± 17.8 pA. The “Response Steady State Amplitude” value [1, 13] was 23.5 ± 7.4 pA, the “Deactivation Tau” value [1, 14] was 415 ± 226 ms and the “Response Peak Amplitude” value [1, 14] was 8.9 ± 1.2 pA. For the same compound, the “Response Steady State Amplitude” value [1, 14] was 5.8 ± 7.5 pA.
